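Following 48 hours of exposure in 96-well plates, responses at five concentrations were used to interpolate endpoints linearly. Abbreviation: GI50, concentration required for 50% inhibition of growth. TGI: concentration producing complete growth inhibition.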

TGI and GI50 data for 19 compounds are collected here from PubChem BioAssay (NCI).

Among the test systems are DMS 114 small cell lung; DMS 273 small cell lung; KM20L2 colon; LXFL 529 NSCLC; SNB-78 CNS; XF 498 CNS; RXF-631 renal; HOP-18 NSCLC; P388 leukemia; P388/ADR leukemia; SN12K1 renal.
Holding throughout (experiment): NCI tumour cell line growth inhibition, 48 h

In the case of `Nc1ncnc2c1ncn2CCCC(c1ccccc1)P(=O)(O)O` (centres undefined), the TGI in the assay on DMS 114 small cell lung, in the assay with DMS 273 small cell lung, in the assay with KM20L2 colon, in the assay with LXFL 529 NSCLC, in the assay with SNB-78 CNS and in the assay on XF 498 CNS was greater than 100 µM in each case.
`NC(=O)COc1c(Br)cc(Br)cc1Br`: the TGI with DMS 114 small cell lung, with DMS 273 small cell lung, in the assay with KM20L2 colon, in the assay with RXF-631 renal and with XF 498 CNS was greater than 100 µM each time.
Take `C[N+](C)(C)CCOC(=O)/C=C/c1cnc[nH]1`: the TGI was greater than 500 µM in the assay on DMS 114 small cell lung; greater than 500 µM in the assay on DMS 273 small cell lung; greater than 500 µM in the assay with HOP-18 NSCLC; greater than 500 µM in the assay with KM20L2 colon; greater than 500 µM in the assay with P388 leukemia; greater than 316 µM in the assay on P388/ADR leukemia. Moreover, the TGI in the assay with SN12K1 renal, with SNB-78 CNS and in the assay on XF 498 CNS was greater than 500 µM each time.
With `Nc1ncnc2c1sc(=S)n2-c1ccccc1`, the TGI in the assay on DMS 114 small cell lung, in the assay with DMS 273 small cell lung, in the assay on HOP-18 NSCLC, with KM20L2 colon, in the assay with LXFL 529 NSCLC and with SNB-78 CNS was greater than 100 µM throughout. Besides, in the assay on XF 498 CNS, the TGI is greater than 100 µM.
Turning to `COc1cccc2c1C(=O)c1c(O)c3c(c(O)c1C2=O)C[C@@](O)(C(=O)CN1CCOCC1)C[C@@H]3OC1CC(N)C(O)C(C)O1` (some centres undefined), the TGI with DMS 114 small cell lung is 21.8 µM; in the assay with DMS 273 small cell lung it was 20.5 µM; in the assay on HOP-18 NSCLC, 22 µM; in the assay on KM20L2 colon it was 71.5 µM; with P388 leukemia, 2.29 µM; in the assay with P388/ADR leukemia, 71.7 µM. For the same compound, the TGI in the assay with SN12K1 renal amounted to 30.1 µM; with XF 498 CNS, 8.33 µM. The GI50 with HOP-18 NSCLC is 1.43 µM.
With `COc1cc(N)c2[nH]c3c(C)ccc(C)c3c2c1`, the TGI in the assay on DMS 114 small cell lung, in the assay with DMS 273 small cell lung, in the assay on SNB-78 CNS and in the assay with XF 498 CNS was greater than 100 µM each time.
Turning to `COc1ccc(C2S/C(=C\c3cccc(OC)c3)C(=O)N2NC(=O)Cc2ccccc2)cc1` (centres undefined), the TGI in the assay on DMS 273 small cell lung, in the assay on HOP-18 NSCLC and with LXFL 529 NSCLC was greater than 100 µM throughout.
For `Cc1c(OCCCOc2ccc3c(=O)cc(-c4ccccc4)oc3c2C)ccc2c(=O)cc(-c3ccccc3)oc12`, the TGI in the assay on DMS 114 small cell lung, in the assay on DMS 273 small cell lung, with HOP-18 NSCLC, with KM20L2 colon, with LXFL 529 NSCLC and in the assay on SNB-78 CNS was greater than 100 µM throughout. This compound showed a TGI in the assay on XF 498 CNS greater than 100 µM.
For `COc1cc2c(c(O)c1C)C(=O)CC(c1ccccc1)O2` (centres undefined), the TGI in the assay on DMS 114 small cell lung was greater than 100 µM; in the assay with HOP-18 NSCLC it was greater than 100 µM; in the assay with KM20L2 colon, 82.3 µM; with LXFL 529 NSCLC, greater than 100 µM; with RXF-631 renal, greater than 100 µM; in the assay on SNB-78 CNS, greater than 100 µM.
As for `C[N+](C)=c1ccc2nc3c(ccc4ccccc43)oc-2c1`, the TGI was determined as 54.4 µM in the assay on DMS 114 small cell lung; 39.2 µM with DMS 273 small cell lung; 23.6 µM in the assay on HOP-18 NSCLC; 27.1 µM in the assay on KM20L2 colon; 19.4 µM in the assay with LXFL 529 NSCLC; 20.8 µM in the assay with RXF-631 renal. The TGI is 20.8 µM in the assay with SNB-78 CNS and 27.4 µM in the assay on XF 498 CNS.
On to `CC1(C)OC2CC3COC(=O)C3CC2O1` (centres undefined), for which the TGI with DMS 114 small cell lung, with DMS 273 small cell lung, with HOP-18 NSCLC, with KM20L2 colon, in the assay on LXFL 529 NSCLC and in the assay on RXF-631 renal was greater than 100 µM each time. Besides, the TGI in the assay with SNB-78 CNS was greater than 100 µM.
For `C/C=C/c1cc2c(c(=O)o1)C(=O)[C@@H](O)[C@H](C)O2`, the TGI with DMS 114 small cell lung was 19.1 µM; in the assay with DMS 273 small cell lung, 29.7 µM; in the assay with HOP-18 NSCLC it was 31.9 µM; in the assay on KM20L2 colon, 30.5 µM; in the assay with P388 leukemia, 7.15 µM; in the assay with SN12K1 renal, 31.8 µM. The compound further registered a TGI in the assay on SNB-78 CNS of 42 µM.
For the compound `Nc1ccc2nc(Nc3ccc(Cl)c(Cl)c3)cnc2c1`, the figures for the TGI in the assay with DMS 114 small cell lung, with DMS 273 small cell lung and in the assay with SNB-78 CNS were 24.5 µM, 34.1 µM and greater than 100 µM, respectively.
On to `COC1=CC(=O)C2C(C1=O)[C@@H]1c3ccccc3OC(C)(C)[C@H]21` (some centres undefined), for which the TGI is 40.8 µM with DMS 114 small cell lung; 40.6 µM in the assay on DMS 273 small cell lung; 66.3 µM with KM20L2 colon; 32.8 µM in the assay with LXFL 529 NSCLC; 41.5 µM in the assay on SNB-78 CNS; 32.1 µM in the assay on XF 498 CNS.
Take `CCCCCCCCCCCCCCCCNCC(O)CN` (centres undefined): the TGI stood at 21 µM in the assay on DMS 114 small cell lung; 14.3 µM in the assay with DMS 273 small cell lung; 14 µM in the assay on HOP-18 NSCLC; 7.19 µM with KM20L2 colon; 2.68 µM in the assay on P388 leukemia; 3.44 µM in the assay on SN12K1 renal. Also, the TGI turned out to be 5.83 µM with SNB-78 CNS and 23.9 µM with XF 498 CNS.
For `Cc1c(-c2coc(-c3ccccc3)n2)c(=O)n(-c2ccccc2)n1C`, the TGI was greater than 100 µM in the assay with DMS 114 small cell lung; greater than 100 µM with DMS 273 small cell lung; greater than 100 µM in the assay on KM20L2 colon; greater than 100 µM in the assay with LXFL 529 NSCLC; greater than 100 µM with SNB-78 CNS; 81.7 µM in the assay with XF 498 CNS.
For the compound `N#CNC(=NCc1ccccc1)NCCc1c[nH]c2ccccc12`, the TGI in the assay on DMS 114 small cell lung, in the assay on DMS 273 small cell lung, with KM20L2 colon, in the assay with LXFL 529 NSCLC, in the assay on SNB-78 CNS and with XF 498 CNS was greater than 100 µM each time.
With `N=c1n(CC(=O)NC23CC4CC(CC(C4)C2)C3)c2ccccc2n1CC(=O)NC12CC3CC(CC(C3)C1)C2`, the TGI with DMS 114 small cell lung is 3.67 µM; in the assay on DMS 273 small cell lung, 3.35 µM; with HOP-18 NSCLC, 4.5 µM; in the assay with KM20L2 colon, 3.2 µM; with LXFL 529 NSCLC, 3.46 µM; in the assay on SNB-78 CNS, 6.38 µM. In the assay with XF 498 CNS, this compound returned a TGI of 2.93 µM.
As to `N=S(=O)(c1ccccc1)c1ccccc1`, the TGI with DMS 114 small cell lung, with HOP-18 NSCLC, in the assay with KM20L2 colon, in the assay with LXFL 529 NSCLC and in the assay with SNB-78 CNS was greater than 100 µM in each case.
